This is an account of results in US20050032787A1, “Pheny (alkyl)carboxylic acid derivatives and dionic phenylalkylheterocyclic derivatives and their use as medicines with serum glucose and/or serum lipid lowering activity” (priority 2002, published 2005).

One series deals with 3T3-L1 cells. Kind of series: Determination of glucose consumption in differentiated 3T3-L1 cells. Type of series: cell-based, mouse. The note with it: 22 hours, glucose 25 mM, insulin 0.25 nM, concentrations assayed 1, 5, 10, 25 μM. The method, then: Determination of Glucose Consumption in 3T3-L1 Cells
Glucose consumption was assessed in differentiated 3T3-L1 cells.
Mouse fibroblasts (3T3-L1) were seeded at a density of 5×10^3/cm^2 and cultured on 12-well plates in 1 ml of DMEM containing glucose 25 mM and added with 10% CS, glutamine 4 mM, pyruvate 1 mM, penicillin 50 U/ml, and streptomycin 50 μg/ml, in an atmosphere humidified with 5% CO2 at 37° C.
Two to three days after confluence, differentiation was induced with the addition of 1.5 ml of DMEM containing 3-isobutyl-1-methylxanthine (IBMX) 0.5 mM, dexamethazone 1 μM and porcine insulin 10 μg/ml in glucose 25 mM and 10% FBS.
After 2 days, the cells were exposed to the same medium without IBMX and dexamethazone for another 2 days. […]
The cells were used 10-12 days after induction of differentiation, as monitored by evaluating triglyceride accumulation. […]
The analysis of the glucose in the medium was done with the aid of a Cobas Mira S autoanalyzer (Roche), using the HK 125 Glucose Kit (ABX Diagnostics). The glucose concumprion stimulated by the products was evaluated as % increase compared to the control compound. […]

For a further series, the system named is C57BL/KsJ db/db mice. Kind of series: Antidiabetic and serum lipid lowering activity in db/db mice. The note with it: oral twice daily for a fortnight, rosiglitazone 5 mg/kg, Example 22 25 mg/kg, vs control; for Reduction of glucose levels % / Reduction of triglyceride levels %: serum 7 hours after last treatment; for Change in GPT levels % / Change in HDL-cholesterol levels %: serum.

Where a name gives a salt, the structure may show the parent alone. Marks after values point to notes of the source that are not given here.

On to `CCOC(=O)[C@H](Cc1ccc(OC(=O)NCc2ccc(OC)cc2)cc1)NC(=O)c1ccccc1`, for which the melting point (commonly the temperature, or range, at which the solid turns liquid) was in the range of 149 to 151 °C.

In turn, `COC(=O)C(Cc1ccc(OC(=O)Nc2ccc(Cl)cc2Cl)cc1)C(=O)OC` gave a melting point of 84 °C.

`COC(=O)C(Cc1ccc(OC(=O)Nc2ccc(Cl)cc2)cc1)C(=O)OC` registered a melting point of 125 to 127 °C.

For the molecule `COC(=O)C(Cc1ccc(OC(=O)Nc2ccc([N+](=O)[O-])cc2)cc1)C(=O)OC`, the melting point fell in the range of 128 to 130 °C.

`COC(=O)C(Cc1cccc(OC(=O)NCc2ccc(OC)cc2)c1)C(=O)OC` registered a melting point of 62 to 64 °C.

On to `CCCCc1ccc(NC(=O)Oc2ccc(CC(C(=O)OC)C(=O)OC)cc2)cc1`, for which the melting point was in the range of 90 to 92 °C.

As for `COC(=O)C(Cc1cccc(OC(=O)Nc2ccc(Cl)cc2)c1)C(=O)OC`, the melting point was in the range of 79 to 80 °C.

Consider `COC(=O)C(Cc1ccc(OC(=O)NCc2ccc(OC)cc2)cc1)C(=O)OC` (as salt: malonate), for which the melting point stood at 78.6 °C.

In the case of `COC(=O)C(=Cc1ccc(OCCn2ccc3ccccc32)cc1)C(=O)OC` [Example 3, dimethyl 4-[2-(1-indolyl]ethoxy]benzylidenemalonate], the melting point is 68 to 70 °C.

`O=C(O)C(Cc1ccc(OCCn2ccc3ccccc32)cc1)C(=O)O` [Example 5, 4-[2-(1-indolyl)ethoxy]benzylmalonic acid] gave a melting point of 112 to 114 °C.

The molecule `COC(=O)CCc1ccc(OCCn2ccc3ccccc32)cc1` [Example 8, methyl 3-[4-[2-(1-indolyl)ethoxy]phenyl]-propanoate] registered a melting point of 85 °C.

`COC(=O)Cc1ccc(OCCn2ccc3ccccc32)cc1` [Example 9, methyl 2-[4-[2-(1-indolyl)ethoxy]phenyl]acetate] had a melting point of 50 to 52 °C.

In turn, `COC(=O)C(O)Cc1ccc(OCCn2ccc3ccccc32)cc1` (centres unmarked) [Example 12, methyl 2-hydroxy-3-[4-[2-(1-indolyl)ethoxy]-phenyl]propanoate] gave a melting point of 70 to 72 °C.

With `O=C1NC(=O)C(=Cc2ccc(OCCc3ccc(Cl)cc3)cc2)S1` [Example 20, 5-[4-[2-(4-chlorophenyl)ethoxy]phenylmethylene]thiazolidine-2,4-dione], the melting point was in the range of 202 to 203 °C.

Consider `O=C1NC(=O)C(Cc2ccc(OCCc3ccc(Cl)cc3)cc2)S1` (centres unmarked) [Example 21, 5-[4-[2-(4-chlorophenyl)ethoxy]phenylmethyl]-thiazolidine-2,4-dione], for which the melting point was in the range of 147 to 148 °C.

On to `COC(=O)C(Cc1cccc(OCCc2ccc(Cl)cc2)c1)C(=O)OC` [Example 22, dimethyl 3-[2-(4-chlorophenyl)ethoxy]-benzylmalonate], for which the “lowest concentration of those assayed to induce a 40% increase in glucose consumption” value in the series with 3T3-L1 cells was found to be 1 µM. For the same molecule, in the series on C57BL/KsJ db/db mice, the Weight gain % entry is “+16 ▴ %”, the “Reduction of glucose levels %” value is −32 Δ %, the “Reduction of triglyceride levels %” value is recorded as −47 ▴ % and the “Change in GPT levels %” value is “+38 ▴ %”. Moreover, the “Change in HDL-cholesterol levels %” value in the series with C57BL/KsJ db/db mice is “+37 ▴ %”.

For the molecule `COC(=O)C(Cc1ccc(OCCc2ccc3ccccc3c2)cc1)C(=O)OC` [Example 29, dimethyl 4-[2-(2-naphthyl)ethoxy]benzyl-malonate], the melting point stood at 68.5 °C.

`O=C1NC(=O)C(=Cc2cccc(OCCc3ccc(Cl)cc3)c2)S1` [Example 46, 5-[3-[2-(4-chlorophenyl)ethoxy]phenylmethylene]thiazolidine-2,4-dione]: the melting point fell in the range of 186 to 187 °C.

The molecule `O=C1NC(=O)C(Cc2cccc(OCCc3ccc(Cl)cc3)c2)S1` (centres unmarked) [Example 47, 5-[3-[2-(4-chlorophenyl)ethoxy]phenylmethyl]thiazolidine-2,4-dione] returned a melting point of 90 to 91 °C.

As to `CN(CCOc1ccc(CC2SC(=O)NC2=O)cc1)c1ccccn1` (centres unmarked) [Rosiglitazone, rosiglitazone, reference compound], the “lowest concentration of those assayed to induce a 40% increase in glucose consumption” value in the series on 3T3-L1 cells was 5 µM. In the series on C57BL/KsJ db/db mice, the “Reduction of glucose levels %” value is −36 Δ %, the “Reduction of triglyceride levels %” value is on record as −41 ▴ %, the “Change in GPT levels %” value is recorded as “+117 ▴ %” and the “Change in HDL-cholesterol levels %” value is −7%.
